Ends that are not written are not given here. Peptide text beside a SMILES is read from it. * marks the point of attachment. Cbz = O=C(OCc1ccccc1)*
What was measured:
FGFR3 = assay: Western blotting of FGFR3 in primary chondrocytes; format: cell-based, mouse
Experimental: Cell lysates were separated by SDS-PAGE. The separated proteins were immunostained with anti-FGFR3 antibody (Cell Signaling, #4574), anti-phosphorylated MAPK antibody (Cell Signaling, #9109) or anti-β-actin antibody (Cell Signaling, #49776).
The investigation of the effects of the inhibitors was performed as follows. A total of 2.5×10^5 primary chondrocytes were plated in each well of a six-well plate, and were cultured in the presence or absence of 1 μM lovastatin for 2 days. Then, the culture was supplemented with […] MG132, 100 nM Baf A1 or vehicle. Two hours later, the culture was further supplemented with 50 ng/ml FGF9 (PeproTech) and incubated at 4° C. for 2 hours. Then cells were collected and subjected to analysis by Western blotting.

TD-iPSCs [1] = assay: Chondrogenic differentiation of TD-iPSCs, cartilaginous extracellular matrix by safranin O staining; format: cell-based, human; conditions: day 42; for chondrogenic differentiation of TD-iPSCs (safranin O): TD714-3, CNP 100 nM, NF449 25 μM, FGFR inhibitor 1 μM, IGF1R inhibitor 1 nM; for chondrogenic differentiation / cartilage formation of TD-iPSCs (safranin O): statin 1 μM in cartilage differentiation medium
Experimental: (§1) The iPS cell lines were transferred to Matrigel (Invitrogen)-coated dishes, then Essential 8 medium (Life Technologies) supplemented with 50 units/ml penicillin and 50 μg/ml streptomycin was added, and the cell lines were cultured for undifferentiated maintenance under the feeder-free conditions. The iPS cell lines formed colonies that consisted of 1 to 2×10^5 cells 10 to 15 days after seeding, and the medium was changed to mesodermal differentiation medium (DMEM/F12 supplemented with 10 ng/ml Wnt3A (R&D), 10 ng/ml activin A (R&D), 1% insulin-transferrin-sodium selenite (Invitrogen), 1% fetal calf serum, 50 units/ml penicillin and 50 μg/ml streptomycin) (day zero of differentiation). Three days after (day 3 of differentiation), the medium was changed to cartilage differentiation medium (DMEM/F12 supplemented with 50 μg/ml ascorbic acid, 10 ng/ml BMP2 (Osteopharma), 10 ng/ml TGFβ (PeproTech), 10 ng/ml GDF5, 1% insulin-transferrin-sodium selenite, 1% FBS, 50 units/ml penicillin and 50 μg/ml streptomycin). Eleven days after (day 14 of differentiation), the cells were physically separated from the dishes, and transferred to a suspension culture in the same medium. Fourteen days after transfer (day 28 of differentiation) and 28 days after transfer (day 42 of differentiation), the cells formed particles and the particles were harvested for analyses. The culture medium was changed every 2 to 7 days during differentiation.
FGFR3 neutralizing antibody was added to the medium during the chondrogenic differentiation of TD-iPSCs to inhibit FGFR3 activity, and chondrocyte formation was assessed. The FGFR3 neutralizing antibody (Santa Cruz (sc-13121)) was added as 1 μl of an antibody solution (200 ng/ml) in 1 ml of cartilage differentiation medium. As a control, IgG (Cell Signaling, #27295) was used. The chondrogenic differentiation was performed in the same manner as in Example 2, and the cartilaginous particles were assessed on days 28 and 42 of differentiation.
(§2) Several drugs that had previously been reported to affect FGFR3 signaling and/or chondrocyte differentiation (CNP, NF449, a FGFR inhibitor, and an IGF1R inhibitor) were selected, and their ability to rescue TD-iPSCs from failure of chondrogenic differentiation was investigated. The stock CNP (Sigma, N8768), NF449 (Abcam, ab120415), a FGFR inhibitor (PD 173047, Cayman) and an IGF1R inhibitor (IGF-1R inhibitor, PPP. Calbiochem, 407247) solutions were prepared at a concentration of 100 μM, 50 mM, 1 mM, 1 μM, respectively. The stock solutions were added to cartilage differentiation medium at the final concentrations of CNP, NF449, the FGFR inhibitor and the IGF1R inhibitor of 100 nM, 25 μM 1 μM, and 1 nM, respectively (day 3 of differentiation). TD-iPSCs were chondrogenically differentiated in the same manner as in Example 2, and the cartilaginous particles were assessed on days 28 and 42 of differentiation. As a control, an equal volume of water or DMSO was added to the medium. mRNA expression analysis was performed in the same manner as in Example 1.
To investigate whether lovastatin rescues TD-iPSCs from failure of chondrogenic differentiation, evaluation was performed in the same manner as in Example 4. A stock lovastatin (TCI, L0214) solution was prepared by dissolving it in DMSO at a concentration of 10 mM, and the solution was added to cartilage differentiation medium at a final concentration of 1 μM.

TD-iPSCs [2] = assay: Real-time RT-PCR expression analysis of chondrocyte and fibroblast marker genes in chondrogenically differentiated TD-iPSCs; format: cell-based, human; conditions: TD714-3; CNP 100 nM, IGF1R inhibitor 1 nM; day 28
Experimental: mRNAs were isolated from the cell lines using RNeasy Mini Kit (Qiagen). A total of 500 ng of the total RNA was used as a template for cDNA synthesis by reverse transcription using ReverTra Ace system (TOYOBO). Standard curves for quantitative PCR (real-time PCR) were established and used for analyses. Real-time PCR analysis was performed in Step One system (ABI) using KAPA SYBR FAST qPCR kit Master Mix ABI Prism (KAPA BIOSYSTEMS).
as §1, §2

FGFR3^Ach mice = assay: Bone growth of ACH model mice treated with statins, X-ray imaging; format: in vivo, mouse; conditions: day 3 to day 14, 15 days old
Experimental: The FGFR3^Ach mice were crossed with wild-type mice (C57BL/6 background). A rosuvastatin solution at a dose of 1.0 mg/kg was intraperitoneally administered to the crossed mice 6 times per week from 3 days after birth until day 14. The mice were euthanized on day 15, and the bodies and the bone formation were examined by X-ray imaging (Faxitron DX-50). Genomic DNA was extracted from the toes of each mouse and subjected to genotype analysis. Also, a lovastatin solution at a dose of 0.4 mg/kg was intraperitoneally administered to the crossed mice 6 times per week from day 3 after birth until day 28, and the mice were euthanized on day 29 for examination of the bodies and the bone formation in the same manner as above.

[3] = test system: TD-iPSC-derived cartilaginous particles; assay: Incorporation of BrdU by TD-iPSC-derived cartilaginous particles; format: cell-based, human; conditions: presence vs absence of statin, 1 μM; day 28
[4] = rosuvastatin 1.0 mg/kg intraperitoneally 6 times per week

CO/C1=C\C(C)=C\[C@@H](C)[C@@H](O)[C@@H](C)C/C(C)=C/C=C/[C@H](OC)[C@@H]([C@@H](C)[C@@H](O)[C@H](C)[C@@]2(O)C[C@@H](O)[C@H](C)[C@@H](C(C)C)O2)OC1=O [Bafilomycin A1]
expression of FGFR3 (FGFR3; FGFR3^Ach chondrocytes in the presence of 1 μM lovastatin, 100 nM Baf A1): slightly increased

CCN(CC)CCCCNc1ncc2cc(-c3cc(OC)cc(OC)c3)c(NC(=O)NC(C)(C)C)nc2n1 [FGFR inhibitor, PD 173047]
chondrogenic differentiation of TD-iPSCs (safranin O) (TD-iPSCs [1]): had no effect on the chondrogenic differentiation of TD-iPSCs

COc1cc([C@@H]2c3cc4c(cc3[C@H](O)[C@H]3COC(=O)[C@@H]23)OCO4)cc(OC)c1OC [IGF1R inhibitor]
expression of chondrocyte marker genes (SOX9, COL2, AGGRECAN) (TD-iPSCs [2]): increased the expression of chondrocyte marker genes
expression of fibroblast marker genes (COL1A1, COL1A2) (TD-iPSCs [2]): decreased the expression of fibroblast marker genes
chondrogenic differentiation of TD-iPSCs (safranin O) (TD-iPSCs [1]): rescued TD-iPSCs from failure of chondrogenic differentiation

CC(C)C[C@@H](C=O)NC(=O)[C@H](CC(C)C)NC(=O)[C@H](CC(C)C)NC(=O)OCc1ccccc1 [MG132] (Cbz-Leu-Leu-Leu-aldehyde)
amount of FGFR3 (FGFR3; FGFR3^Ach chondrocytes cultured in the presence of 1 μM lovastatin, 10 mM MG132): increased the amount of FGFR3

O=C(Nc1cc(C(=O)Nc2ccc(S(=O)(=O)O)cc2S(=O)(=O)O)cc(C(=O)Nc2ccc(S(=O)(=O)O)cc2S(=O)(=O)O)c1)Nc1cc(C(=O)Nc2ccc(S(=O)(=O)O)cc2S(=O)(=O)O)cc(C(=O)Nc2ccc(S(=O)(=O)O)cc2S(=O)(=O)O)c1 [NF449]
chondrogenic differentiation of TD-iPSCs (safranin O) (TD-iPSCs [1]): had no effect on the chondrogenic differentiation of TD-iPSCs

CC(C)c1c(C(=O)Nc2ccccc2)c(-c2ccccc2)c(-c2ccc(F)cc2)n1CC[C@@H](O)C[C@@H](O)CC(=O)O [atorvastatin]
chondrogenic differentiation / cartilage formation of TD-iPSCs (safranin O) (TD-iPSCs [1]): rescued abnormal cartilage formation in the TD-iPSC-derived chondrocytes

CC[C@H](C)C(=O)O[C@H]1CCC=C2C=C[C@H](C)[C@H](CC[C@@H]3C[C@@H](O)CC(=O)O3)[C@H]21 [mevastatin]
chondrogenic differentiation / cartilage formation of TD-iPSCs (safranin O) (TD-iPSCs [1]): rescued abnormal cartilage formation in the TD-iPSC-derived chondrocytes

CC(C)c1nc(N(C)S(C)(=O)=O)nc(-c2ccc(F)cc2)c1/C=C/[C@@H](O)C[C@@H](O)CC(=O)O [rosuvastatin]
anteroposterior lengths of the skulls (Cranial A-P) (FGFR3^Ach mice; [4]): increased
lengths of the femurs (Femur) (FGFR3^Ach mice; [4]): increased
lengths of the tibiae (Tibia) (FGFR3^Ach mice; [4]): increased
lengths of the ulnas (Ulna) (FGFR3^Ach mice; [4]): increased
differences in the lengths vs wild-type mice receiving vehicle (FGFR3^Ach mice; rosuvastatin 1.0 mg/kg intraperitoneally, t-test): no significant differences
chondrogenic differentiation / cartilage formation of TD-iPSCs (safranin O) (TD-iPSCs [1]): rescued abnormal cartilage formation in the TD-iPSC-derived chondrocytes
number of BrdU-positive cells [3]: significantly increased the number of BrdU-positive cells

c-type natriuretic peptide (GLSKGCFGLKLDRIGSMSGLGC; ends and bridges not checked; cysteine pairing not given here; UniProt P23582 105-126, looked up) [CNP, c-type natriuretic peptide (Sigma, N8768)]
expression of chondrocyte marker genes (SOX9, COL2, AGGRECAN) (TD-iPSCs [2]): increased the expression of chondrocyte marker genes
expression of fibroblast marker genes (COL1A1, COL1A2) (TD-iPSCs [2]): decreased the expression of fibroblast marker genes
chondrogenic differentiation of TD-iPSCs (safranin O) (TD-iPSCs [1]): rescued TD-iPSCs from failure of chondrogenic differentiation
